In patent US5582832A, “Compositions for topical application to skin” (priority 1995, dated 1996):

How the values were obtained:
Type in all cases: cell-based, human
keratinocytes = assay: Rate of DNA synthesis (3H-thymidine incorporation) in keratinocytes; conditions: 100 nM 1,25D; for keratinocyte DNA synthesis, % of the corresponding controls (1 uM Econazole) / keratinocyte DNA synthesis, % of the corresponding controls (10 uM Econazole) / keratinocyte DNA synthesis, % of the corresponding controls (no azole): Table 5; for keratinocyte DNA synthesis, % of the corresponding controls (1 uM Econazole): 1 uM ceramide + 1 uM Econazole; for keratinocyte DNA synthesis, % of the corresponding controls (10 uM Econazole): 1 uM ceramide + 10 uM Econazole; for keratinocyte DNA synthesis, % of the corresponding controls (10 uM Econazole) / keratinocyte DNA synthesis, % of the corresponding controls (no azole): * = synergistic effect; for keratinocyte DNA synthesis, % of the corresponding controls (no azole): 1 uM ceramide; for DNA synthesis (% control) / DNA synthesis: Tables 5A-5I, Econazole 10 uM, ceramide analogue 1 uM; for DNA synthesis: mean + SD
Method: (§1) 1. Normal human keratinocytes isolated from neonatal foreskins by trypsin treatment were grown in DME medium/10% fetal calf serum in the presence of irradiated 3T3 mouse fibroblasts for establishing dividing keratinocyte colonies. Keratinocytes were grown under the above condition until their third passage.
2. For the experiments, third passage keratinocytes were plated into a serum-free keratinocyte growth medium (KSFM; obtained from Life Technologies, Grand Island, N.Y.) containing 0.09 mM calcium. 20,000 to 30,000 cells were plated into each well of 24 well cell culture plates and grown for 5 days, until the cells reach about 80% confluence.
3. Medium was changed to fresh medium and the various test materials were added to the medium from an ethanolic stock solution (10:00 AM). The final ethanol concentration in the cultures was kept below 0.2%. Control cultures received no tested material but were dosed with 0.2% ethanol. Each compound or combination was tested in three separate wells. By 4:00 PM, 1 uCi of ^3 H-thymidine (Amersham Corp., Sp activity 40 Ci/mmol) was added to the 1 ml medium in each well. The cells were incubated overnight and […] (10:00 AM next day) the amount of ^3 -thymidine associated with the cellular DNA of keratinocytes was assessed as described below.
4. The medium was aspirated, and the wells washed with 1 ml phosphate-buffered saline. The DNA and proteins of the cells in the plate were then precipitated by adding 1 ml of ice-cold 10% trichloroacetic acid (TCA). The plates were left on ice for 30 minutes to complete the precipitation process. TCA was then aspirated and each well was then washed four times with 5% TCA. The plates were then dried on a filter pad and the cells in the wells were dissolved in 0.5 ml of 0.1N sodium hydroxide. The sodium hydroxide was then neutralized using 0.1N hydrochloric acid and the solution (1 ml total volume) was then transferred to a scintillation vial. 50 μl samples from each vial were used for protein assay using BCA protein assay reagent obtained from Pierce Chemical Company. 8 ml of a scintillation fluid (Ecolume) was added to the rest of the solution in the vial, and the vials were counted in a scintillation counter to determine the amount of radioactivity in each vial. The DNA synthesis rate was then calculated as cpm ^3 H thymidine incorporated into total cellular DNA/microgram of cell protein for each individual well. Mean and standard deviation for each group was also calculated.
Rationale for using 1,25D is that in in vivo situation, these azoles will inhibit the endogenous degradation of the 1,25D which is obtained from the circulation. Azoles will act in keratinocytes to increase the endogenous levels of 1,25D within cells. Keratinocytes (70% confluent) were incubated with 10 uM of the different azoles in the presence of 100 nM 1,25D. One of the groups was treated with 5 uM of ceramide of Formula A in the medium. After four hours, all the wells were treated with 1 uCi ^3 H-thymidine and the rate of DNA synthesis was estimated as described in the methods.
Keratinocytes were incubated with 1 or 10 uM of Econazole in the presence of 1 uM of the different ceramide analogues and 100 nM 1,25D in the medium. Thymidine incorporation was measured with an overnight incubation as described in Example 2.

[1] = test system: 25D degradation (vitamin D metabolism in keratinocytes); assay: Vitamin D metabolism in keratinocytes: 25D degradation; conditions: Table 1; 100 uM compound
Method: as §1
(§2) 80% confluent keratinocytes were incubated with 0.05 uCi of ^3 H-25D or ^3 H-1,25D for two hours or 20 hours in the presence of 1-100 uM of the different compounds. Reaction was stopped by addition of methanol and the cells and medium were extracted using chloroform:methanol. The chloroform layer was separated, dried and spotted on TLC plates. […] The amount of radioactivity in each lane was quantitated using the BioScan radioactive plate reader. The amount of radioactivity remaining in the peak area of 25D and 1,25D were calculated as % of control. The % remaining was subtracted from 100 to get the % degradation of the metabolites.
(§3) The data are expressed as mean of % degradation of 25D or 1,25D. The range is also given in parenthesis.

[2] = test system: 1,25D degradation (vitamin D metabolism in keratinocytes); assay: Vitamin D metabolism in keratinocytes: 1,25D degradation; conditions: Table 1; 100 uM compound
Method: as §1, §2, §3

Structure (SMILES)	keratinocyte DNA synthesis, % of the corresponding controls (1 uM Econazole) (keratinocytes)	keratinocyte DNA synthesis, % of the corresponding controls (10 uM Econazole) (keratinocytes)	keratinocyte DNA synthesis, % of the corresponding controls (no azole) (keratinocytes) [%]	DNA synthesis (% control) (keratinocytes)	DNA synthesis (keratinocytes)	% degradation (25D) [1] [%]	% degradation (1,25D) [2] [%]
CCCCCCCCCCCCCCCCOCC(O)CN(CCO)C(C)=O (centres unmarked) [Formula E]	99.8 + 19.1%	20.5 + 12.9%	104.3 ± 17.7	104.4	31267 + 6143 cpm 3H thymidine incorporated	–	–
CCCCCCCCCCCCN(CC(O)CO)C(=O)C(O)CCCCCC (centres unmarked) [Formula K]	82.9 + 16.9%	38.7 + 14.8%	100.2 ± 9.6	80	23958 + 5660 cpm 3H thymidine incorporated	–	–
CCCCCCCCCCCCCCC(O)CN(CCO)C(C)=O (centres unmarked) [Formula C]	78.0 + 15.1%	47.2 + 33.6%	77.7 ± 7.4	77.7	23288 + 2737 cpm 3H thymidine incorporated	–	–
Nc1nc2ncc(CNc3ccc(C(=O)N[C@@H](CCC(=O)O)C(=O)O)cc3)nc2c(=O)[nH]1 [folic acid]	–	–	–	–	–	78	95
CCCCCCCCCCCCCCCCN(CC(O)CO)C(C)=O (centres unmarked) [Formula F]	84.3 + 1.96%	40.9 + 9.0%	90.3 ± 21.4	90.3	27051 + 7858 cpm 3H thymidine incorporated	–	–
Cc1ncc(C[n+]2csc(CCO)c2C)c(N)n1 [Thiamine]	–	–	–	–	–	85	77
CC1=CC(=O)c2ccccc2C1=O [menadione (vitamin K1), menadione]	–	–	–	–	–	89	93
